Measured values as given in paper PMC8592027, “Structure-Guided Design of D-Galactal Derivatives with High Affinity and Selectivity for the Galectin-8 N-Terminal Domain” (ACS Medicinal Chemistry Letters, 2021).
Entries after “also recorded” stand apart in the source; their conditions may differ. Where two headings read alike, the source gives them in different places.

Experiments:
galectin-1 = target: T1, galectin-1 (Homo sapiens, UniProt P09382); test: Competitive fluorescence polarization assay, galectin-1; format: binding; details: mean ± SEM of n = 4–8
T1 construct: made in house
T1 sequence (P09382 whole entry): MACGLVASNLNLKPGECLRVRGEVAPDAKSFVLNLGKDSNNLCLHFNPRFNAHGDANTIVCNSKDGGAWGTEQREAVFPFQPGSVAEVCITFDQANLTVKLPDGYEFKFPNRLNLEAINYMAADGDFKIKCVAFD
Procedure: (§1) 1. Competitive fluorescence polarization experiments:
(§2) Human galectins -1, -3, -4N, -4C, -7, -8N, -9N, and -9C were expressed and purified as previously described 30,41. Fluorescence polarisation experiments were performed using the PHERAstar FS plat e reader (software version 2.10 R3), and the fluorescence anisotropy of fluorescein tagged probes was measured by excitation at 485 nm and emission at 520 nm. The specific conditions for galectins -1, -3, -4N, -4C, -7, -8N, -9N, and -9C were kept as report ed30,41,42. The synthesised compounds were dissolved in pure DMSO at 20 mM concentration and diluted in PBS to 3-6 different concentrations, and each concentration was tested in duplicate. The highest inhibitor concentrations tested were 1.5 mM. The

galectin-2 [1] = target: T2, galectin-2 (Homo sapiens, UniProt P05162); test: Competitive fluorescence polarization assay, galectin-2; format: binding; details: mean ± SEM of n = 4–8
T2 sequence (P05162 1-132): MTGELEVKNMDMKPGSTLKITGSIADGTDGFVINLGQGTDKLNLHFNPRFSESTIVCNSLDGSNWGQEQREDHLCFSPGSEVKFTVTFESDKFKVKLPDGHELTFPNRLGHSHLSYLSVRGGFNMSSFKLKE

galectin-3 = target: T3, galectin-3 (Homo sapiens, UniProt P17931); test: Competitive fluorescence polarization assay, galectin-3; format: binding; details: mean ± SEM of n = 4–8
T3 construct: made in house
T3 sequence (P17931 whole entry): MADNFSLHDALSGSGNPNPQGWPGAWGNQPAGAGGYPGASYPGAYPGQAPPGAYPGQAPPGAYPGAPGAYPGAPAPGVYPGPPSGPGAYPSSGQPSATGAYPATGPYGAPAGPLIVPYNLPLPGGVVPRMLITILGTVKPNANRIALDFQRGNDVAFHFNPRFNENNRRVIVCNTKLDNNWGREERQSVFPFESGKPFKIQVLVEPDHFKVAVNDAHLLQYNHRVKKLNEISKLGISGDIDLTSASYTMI
Procedure: as §1, §2

[2] = target: T4, galectin-4N (N-terminal domain) (Homo sapiens, UniProt P56470); test: Competitive fluorescence polarization assay, galectin-4N; format: binding; details: mean ± SEM of n = 4–8
T4 construct: galectins (N = N-terminal domain, C = C-terminal domain); made in house
T4 sequence (P56470 19-150 limits assumed): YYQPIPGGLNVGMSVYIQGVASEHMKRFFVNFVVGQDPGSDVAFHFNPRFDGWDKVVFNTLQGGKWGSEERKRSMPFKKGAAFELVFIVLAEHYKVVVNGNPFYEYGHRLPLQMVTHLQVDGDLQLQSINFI
Procedure: as §1, §2

[3] = target: T5, galectin-4C (C-terminal domain) (Homo sapiens, UniProt P56470); test: Competitive fluorescence polarization assay, galectin-4C; format: binding; details: mean ± SEM of n = 4–8
T5 construct: galectins (N = N-terminal domain, C = C-terminal domain); made in house
T5 sequence (P56470 194-323 limits assumed): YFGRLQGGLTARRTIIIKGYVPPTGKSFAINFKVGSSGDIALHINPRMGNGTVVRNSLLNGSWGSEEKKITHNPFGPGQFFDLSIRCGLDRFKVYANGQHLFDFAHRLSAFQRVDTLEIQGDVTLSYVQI
Procedure: as §1, §2

galectin-7 = target: T6, galectin-7 (Homo sapiens, UniProt P47929); test: Competitive fluorescence polarization assay, galectin-7; format: binding; details: mean ± SEM of n = 4–8
T6 construct: made in house
T6 sequence (P47929 whole entry): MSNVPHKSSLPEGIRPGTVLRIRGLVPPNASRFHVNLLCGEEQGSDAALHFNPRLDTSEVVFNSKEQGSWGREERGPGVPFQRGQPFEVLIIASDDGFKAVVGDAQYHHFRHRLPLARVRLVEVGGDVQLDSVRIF
Procedure: as §1, §2

[4] = target: T7, galectin-8N (galectin-8 N-terminal domain) (Homo sapiens, UniProt O00214); test: Competitive fluorescence polarization assay, galectin-8N; format: binding; details: for Kd: mean ± SEM of n = 4–8
T7 construct: selective ligand for the galectin-8 N-terminal domain (galectin-8N); made in house
T7 sequence (O00214 19-152 limits assumed): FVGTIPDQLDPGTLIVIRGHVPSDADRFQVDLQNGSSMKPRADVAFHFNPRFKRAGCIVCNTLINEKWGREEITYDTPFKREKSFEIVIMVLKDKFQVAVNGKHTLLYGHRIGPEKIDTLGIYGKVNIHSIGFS
Procedure: All synthesized D-galactal derivatives had higher binding affinities for galectin-8N than D-galactal 3.
as §1, §2

[5] = target: T8, galectin-9N (N-terminal domain) (Homo sapiens, UniProt O00182); test: Competitive fluorescence polarization assay, galectin-9N; format: binding; details: mean ± SEM of n = 4–8
T8 construct: galectins (N = N-terminal domain, C = C-terminal domain); made in house
T8 sequence (O00182 17-148 limits assumed): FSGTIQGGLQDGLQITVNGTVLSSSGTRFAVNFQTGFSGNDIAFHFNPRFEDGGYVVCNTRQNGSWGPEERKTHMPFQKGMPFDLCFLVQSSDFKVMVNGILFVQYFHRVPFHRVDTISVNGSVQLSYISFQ
Procedure: as §1, §2

[6] = target: T9, galectin-9C (C-terminal domain) (Homo sapiens, UniProt O00182); test: Competitive fluorescence polarization assay, galectin-9C; format: binding; details: mean ± SEM of n = 4–8
T9 construct: galectins (N = N-terminal domain, C = C-terminal domain); made in house
T9 sequence (O00182 227-355 limits assumed): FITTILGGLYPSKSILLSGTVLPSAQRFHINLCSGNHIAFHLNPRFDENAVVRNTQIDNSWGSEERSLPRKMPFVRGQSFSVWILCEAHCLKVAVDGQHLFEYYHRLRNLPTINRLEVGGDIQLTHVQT
Procedure: as §1, §2

K562 cancer cell line = test: MTS metabolic activity (cytotoxicity) assay, K562; format: cell-based; details: concentrations 1 to 100 μM, 24 hours
Procedure: (§3) We have investigated the cytotoxicity of the compounds 1, 6a, and 6c via a (3-(4,5-dimethylthiazol-2-yl)-5-(3-carboxymethoxyphenyl)-2-(4-sulfophenyl)-2H-tetrazolium) (MTS) assay in K562 and MDA-MB-231 cancer cell lines to establish the direct antitumor activity of compounds, as well as human peripheral blood mononuclear cells (PBMCs), to evaluate their safety.
(§4) Metabolic activity assay:
(§5) The metabolic activities of the cell lines were determined using the CellTiter 96 Aqueous One Solution cell proliferation assay (MTS Reagents, Promega, Madison, WI, USA), according to the manufacturer instructions. Briefly, the cells were treated with the selected compounds in 0.1% dimethyl sulfoxide (DMSO; vehicle), 0.1% DMSO (control vehicle), or medium (control) and seeded at a cell density of 5,500 cells/well (MDA-MB-231 cells) or 4 x 10^4 cells/well (K562 cells), 7000 cells/well (HepG2 cells) or 1 x 10^5 cells/well (human PBMCs) in duplicates (MDA-MB-231, K562, and […]) or triplicates for HepG2 cells (100 µL), in sterile 96-well plates. For the MDA-MB-231 and HepG2, the cells were left to adhere overnight before adding the compounds. The plates were then incubated for 24 hours (48 hours for HepG2), after which 15 µL of MTS reagent was added to each well. After 30-90 minute of incubation, the absorbance was measured at 492 nm using a microplate reader (Synergy HTX Multi-Mode; BioTek Instruments, Inc., VT, USA). […]
(§6) Bead Array Human inflammatory cytokine Kit (content: IL-1, IL-6, IL-8, IL-10, IL-12p). The flow cytometric analyses were performed on an Attune NxT flow cytometer (Thermo Fisher Scientific, […]
(§7) Data are represented as means ± standard deviation (SD) from three representative independent experiments.
(§8) All experiments were performed at least twice, with average values expressed as means ± SD. All data were analyzed with the statistical software GraphPad Prism 8.0 (GraphPad Software, Inc., CA, USA). by one-way ANOVA followed with Dunnett’s multiple compar ison test. Differences were considered non-significant for p > 0.05, and significant (*) for p < 0.05. […]

[7] = tested on: MDA-MB-231 cancer cell line; test: MTS metabolic activity (cytotoxicity) assay, MDA-MB-231; format: cell-based, human; details: concentrations 1 to 100 μM, 24 hours
Procedure: as §3, §4, §5, §6, §7, §8

[8] = tested on: human peripheral blood mononuclear cells (PBMCs); test: MTS metabolic activity (cytotoxicity) assay, PBMCs; format: cell-based; details: concentrations up to 100 μM, 24 hours
Procedure: as §3, §4, §5, §6, §7, §8

[9] = tested on: IL-6 secretion from MDA-MB-231 cells; test: Multiplexed cytokine assay, IL-6 secretion; format: cell-based, human; details: 24 hours, vs untreated cells
Procedure: (§9) Figure 5 Effect of compounds 1 and 6a on the secretion of IL-6 and IL-8 expressed in pg/mL. The effects were measured after incubating the cells with the compounds at 10 and 100 μM. Compounds 1 and 6a reduce the secretion of IL-6 and IL-8 in a dose-dependent manner at 100 and 10 μM. Results shown are means ± SEM of three independent experiments. ns, not significant (p > 0.05); *p < 0.05 versus untreated controls.
(§10) Metabolic activity assay: […]
(§11) Briefly, the cells were treated with the selected compounds in 0.1% dimethyl sulfoxide (DMSO; vehicle), 0.1% DMSO (control vehicle), or medium (control) and seeded at a cell density of 5,500 cells/well (MDA-MB-231 cells) or 4 x 10^4 cells/well (K562 cells), 7000 cells/well (HepG2 cells) or 1 x 10^5 cells/well (human PBMCs) in duplicates (MDA-MB-231, K562, and […]) or triplicates for HepG2 cells (100 µL), in sterile 96-well plates. For the MDA-MB-231 and HepG2, the cells were left to adhere overnight before adding the compounds. The plates were then incubated for 24 hours (48 hours for HepG2), after which 15 µL of MTS reagent was added to each well. […]
(§12) HTX Multi-Mode; BioTek Instruments, Inc., VT, USA).
(§13) Multiplexed cytokine assay:
(§14) MDA-MB-231 cells were seeded in 96-well flat-bottom plates at a density of 2 x 10^4 cells/well in 100 µL of medium and allowed to adhere for 24 hours at 37 °C and 5% CO2. The medium was then replaced by a fresh medium containing the desired concentrations of compounds 1 and 6a, after which the cells were cells incubated again for 24 hours at 37 °C and 5% CO2. Cell-free supernatants were collected and stored at – 80 °C before the analysis. The cytokines secretion was assessed by BD Cytometric Bead Array Human inflammatory cytokine Kit (content: IL-1, IL-6, IL-8, IL-10, IL-12p). The flow cytometric analyses were performed on an Attune NxT flow cytometer (Thermo Fisher Scientific, Waltham, MA, USA). Standard curves were generated using recombinant cytokines provided in the kit, and the data were analyzed with FlowJo software (Tree Star, Inc., Ashland, OR). The results are expressed in pg/mL. Data are represented as means ± standard deviation (SD) from three representative independent experiments.
(§15) All experiments were performed at least twice, with average values expressed as means ± SD. All data were analyzed with the statistical software GraphPad Prism 8.0 (GraphPad Software, Inc., CA, USA). by one-way ANOVA followed with Dunnett’s multiple compar ison test. Differences were considered non-significant for p > 0.05, and significant (*) for p < 0.05.

[10] = tested on: IL-8 secretion from MDA-MB-231 cells; test: Multiplexed cytokine assay, IL-8 secretion; format: cell-based, human; details: 24 hours, vs untreated cells
Procedure: as §9, §10, §11, §12, §13, §14, §15

[11] = target: T7, galectin-8N (galectin-8 N-terminal domain); details: cited from earlier work
[12] = target: T10, galectin-8C (C-terminal domain) (Homo sapiens, UniProt O00214); test: Competitive fluorescence polarization assay, galectin-8C; format: binding; details: mean ± SEM of n = 4–8
T10 construct: galectins (N = N-terminal domain, C = C-terminal domain)
T10 sequence (O00214 187-317 limits assumed): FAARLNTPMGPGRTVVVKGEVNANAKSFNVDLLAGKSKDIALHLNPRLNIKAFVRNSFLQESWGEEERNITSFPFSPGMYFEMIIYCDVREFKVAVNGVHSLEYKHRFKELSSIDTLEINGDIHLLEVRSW

galectin-2 [13] = target: T2, galectin-2; parameters: method as in PMID 30117507, PMID 15889175, doi:10.1139/cjc-2015-0598; details: cited from earlier work
[14] = target: T8, galectin-9N (N-terminal domain); details: cited from earlier work
[15] = target: T9, galectin-9C (C-terminal domain); details: cited from earlier work

| Molecule | Kd (galectin-1) [µM] | Kd (galectin-2 [1]) [µM] | Kd (galectin-3) [µM] | Kd [2] [µM] | Kd [3] [µM] | Kd (galectin-7) [µM] | Kd [4] [µM] | Kd [5] [µM] | Kd [6] [µM] | cell viability (MTS), K562 (K562 cancer cell line) | cell viability (MTS), MDA-MB-231 [7] | direct cytotoxicity (MTS), PBMCs [8] | other results |
| --- | --- | --- | --- | --- | --- | --- | --- | --- | --- | --- | --- | --- | --- |
| O=C(O)c1ccc2nc(CO[C@@H]3C=CO[C@H](CO)[C@@H]3O)[nH]c2c1 [6c] | > 1500 | 990 ± 170 | 550 ± 32 | 1400 ± 230 | 1900 ± 400 | > 1500 | 46 ± 4 | > 1500 | 2500 | None of the compounds decreased the viability | None of the compounds decreased the viability | lack of direct cytotoxicity |  |
| Cn1c(CO[C@@H]2[C@@H](O)[C@@H](Sc3ccc(Cl)c(Cl)c3)O[C@H](CO)[C@@H]2O)nc2ccc(C(=O)O)cc21 [compound 1, reference compound] |  |  |  |  |  |  |  |  |  | None of the compounds decreased the viability | None of the compounds decreased the viability; also recorded: no effect on the viability | lack of direct cytotoxicity | affinity for galectin-8N relative to that of compound 6a [4]: about 25 fold; reduction in IL-6 secretion ([9]; 10 μM, effect not significant): about 15%; reduction of IL-6 secretion ([9]; 100 μM): about 65%; reduction in IL-8 secretion ([10]; 10 μM, effect not significant): ~20%; reduction of IL-8 secretion ([10]; 100 μM): about 55% |
| OC[C@H]1Oc2cc(Cc3ccc(F)cc3)cc3c2[C@@H](OC3)[C@H]1O [compound 2] |  |  |  |  |  |  |  |  |  |  |  |  | selectivity for galectin-8N over galectin-1 [11]: about 2 fold; selectivity for galectin-8N over galectin-3 [11]: 23 fold |
| O=C(O)c1ccc2ccc(CO[C@@H]3C=CO[C@H](CO)[C@@H]3O)nc2c1 [compound 9] | 3600 | 1100 ± 200 | 590 ± 78 | > 1500 | 2800 ± 770 | > 1500 | 48 ± 6 | 1800 ± 160 | > 1500 |  |  |  | Kd [12]: 4700 ± 22 µM |
| CO[C@@H]1O[C@H](CO)[C@H](O)[C@H](O)[C@H]1O [methyl β-D-galactoside] |  |  |  |  |  |  |  |  |  |  |  |  | Kd (galectin-2 [13]): 13000 µM; Kd [14]: 3300 µM; Kd [15]: 8600 ± 7310 µM |
| methyl β-D-galactomalonyl phenyl ester |  |  |  |  |  |  |  |  |  |  |  |  | Kd [11]: 5.7 µM |
